In patent US4721715A, “Derivatives of 4-(arylpiperazinyl-ethylaminoethoxy) phenol useful for effecting hypolipidemic therapy or cardiovascular therapy” (Societe Cortial, S.A., priority 1984, dated 1988):
Where a name gives a salt, the structure may show the parent alone. Read-outs that look alike come from different tables or passages of the source.

Tests used:
[1] = system: phenylephrine-induced hypertension; assay: Alpha-blocking activity in vivo: antagonism of phenylephrine-induced hypertension in rats with spinal cord removal and bivagotomy; conditions: Rattus norvegicus, intravenous
Method: (§1) Alpha-blocking activity was determined in vivo in mice with the test involving inhibition of mydriasis induced by norepinephrine. […] Thirty minutes later, 0.75 mg/kg norepinephrine was administered intravenously. […] In vivo alpha-blocking activity was also evaluated by determination of antagonism of phenylephrine-induced hypertension. The test products were administered by the intravenous route to rats that had undergone spinal cord removal and bivagotomy according to the technique by J. S. Gillespie and T. S. Muir (Br. J. Pharmac. Chemother. 30:78-87, 1967). The dosage, maximum activity, and the interval after which residual activity was equal to 50% of the maximum activity are presented below: […]

mice [2] = assay: Toxicity, intravenous administration to mice; assay type: in vivo; conditions: intravenous, 6.2 mg/kg
[3] = Toxicity, intravenous administration to mice; assay type: in vivo; conditions: mouse, in vivo, intravenous, read-out: mortality rate
[4] = Toxicity, oral administration to mice; assay type: in vivo; conditions: mouse, in vivo, oral route, confidence interval in parentheses
[5] = system: norepinephrine-induced mydriasis; assay: Alpha-blocking activity in vivo: inhibition of norepinephrine-induced mydriasis in mice; conditions: 30 min before 0.75 mg/kg norepinephrine IV
Method: as §1

mice [6] = assay: Toxicity, intraperitoneal administration to mice; conditions: mice, intraperitoneal dose of 200 mg per kg
[7] = system: climbing induced by apomorphine; assay: Neuroleptic activity: climbing test (apomorphine) in mice; assay type: in vivo; conditions: apomorphine 1.5 mg/kg
Method: The neuroleptic activity of COR 2865 was determined in the climbing test. […] They were given 1.5 mg/kg apomorphine in order to induce a maximum climbing level.

[8] = system: spontaneously hypertensive rats; assay: Antihypertensive activity, spontaneously hypertensive rats, oral, arterial pressure at the tail; assay type: in vivo; conditions: 100 mg/kg
Method: In another experiment that was also performed with oral administration in spontaneously hypertensive rats, arterial pressure was measured indirectly at the tail two, four and six hours after administration.

[9] = system: stereotypy induced by apomorphine; assay: Neuroleptic activity: inhibition of apomorphine-induced stereotypy in rats; conditions: 100 mg/kg intraperitoneal, apomorphine 2.5 mg/kg subcutaneous
[10] = system: mice with hypercholesterolemia; assay: Hypolipidemic activity in mice with diet-induced hypercholesterolemia; assay type: in vivo; conditions: oral 100 mg/kg on the sixth and seventh day
Method: Hypolipidemic Activity: In mice with hypercholesterolemia produced by a diet high in cholesterol and cholic acid fed for seven days, administration of an oral dose of 100 mg/kg COR 2865 on the sixth and seventh day brought about a reduction in serum cholesterol of 31% and a reduction of HP-betalipoproteins of 38% as well as a decrease in the VLDL+LDL/cholesterol ratio.

With `CCOc1ccccc1N1CCN(CCOc2cc(C)c(O)cc2C(C)C)CC1` [COR 2865, 5-Isopropyl-2-methyl-4-((2-ethoxyphenyl)piperazinylethoxy) phenol hydrochloride] the ED50 ([1]; 2 min, after 2 min) was 0.0117 µmol/kg, the ED50 ([1]; 0.5 h, after 30 min) was 0.318 µmol/kg and the ED50 ([1]; 1 h, after 60 min) was 0.5 µmol/kg. The inhibition in vivo at 1 µM, 1 µmol/kg ([1]; 10^-6 M/kg, read-out: maximum activity (antagonism of phenylephrine-induced hypertension)) was 122%, the deaths (mice [2]) was “no deaths” and the mortality ([3]; 12.5 mg/kg) was 10%. It also gave a mortality ([3]; 25 mg/kg) of 20%, a mortality ([3]; 50 mg/kg) of 5% and a mortality ([3]; 100 mg/kg) of 90%. The LD50 [4] was 1440 mg/kg, the inhibition of mydriasis ([5]; 1 mg/kg intraperitoneal) was 54% and the inhibition of mydriasis ([5]; 2.5 mg/kg intraperitoneal) was 80%. The deaths (mice [6]) was “no deaths”, the “inhibition of the climbing induced by apomorphine” value ([7]; 10 mg per kg intraperitoneal) was 83% and the “inhibition of the climbing induced by apomorphine” value ([7]; 25 mg/kg intraperitoneal) was 100%. It also gave a pressure reduction ([8]; four hours after administration) of 21%, a pressure reduction ([8]; six hours after administration) of 23% and a pressure reduction ([8]; two hours after administration) of 19%. The “inhibition of apomorphine-induced stereotypy” value [9] was 67%, the “reduction in serum cholesterol” value [10] was 31% and the “reduction of HP-betalipoproteins” value [10] was 38%.
